From patent US6407126B1 (priority 1997, dated 2002)
Where two headings read alike, the source gives them in different places.

System: Phytophthora infestans
Format: in vivo
Conditions: tomato leaves, infected next day, evaluated after 6 days
[1] = 50 ppm active ingredient in the spray liquor
[2] = 100 ppm active ingredient in the spray liquor

| Molecule | Efficacy in % of the untreated control [1] | Efficacy in % of the untreated control [2] | Efficacy in % of the untreated control (25 ppm active ingredient in the spray liquor) | Efficacy in % of the untreated control (12.5 ppm active ingredient in the spray liquor) |
| --- | --- | --- | --- | --- |
| O=C(Nc1ccccc1-c1ccc(F)cc1)c1cccnc1Cl [Compound I.1] | 0% | 0% |  |  |
| CC1(c2ccc(Oc3ccccc3)cc2)OC(=O)N(Nc2ccccc2)C1=O (stereo not drawn) [Compound VI] | 70% | 80% | 70% |  |
| manganese ethylenebis(dithiocarbamate) (zinc complex) [Compound IIa] |  |  |  | 70% |
